Experimental data published in patent publication US20160208297A1, “OMEGA3 UNSATURATED FATTY ACID ENZYME AND METHOD FOR PRODUCING EICOSAPENTAENOIC ACID” (KYOTO UNIVERSITY, priority 2013, published 2016).

Test system: polypeptide (SEQ ID NO: 2) ω3 desaturase
Test: conversion of added ω6 unsaturated fatty acids to ω3 unsaturated fatty acids by yeast transformant expressing the cDNA (SEQ ID NO: 1)
Format: cell-based, Pythium folliculosum
Conditions: for conversion into the corresponding ω3 unsaturated fatty acid / Conversion rate (%): Saccharomyces cerevisiae InvSc1 transformant, 28° C., two days; for Conversion rate (%): substrate added to medium, [product amount/(substrate amount + product amount)] × 100
Method: The cDNA (SEQ ID NO: 1) prepared in the above was integrated into a yeast expression vector, pYE22m (Biosci. Biotech. Biochem., 1995, 59: 1221-1228). The vector was introduced into Saccharomyces cerevisiae InvSc1 strain (tryptophan auxotrophy […]) by an electroporation method to obtain a transformant. The transformant was cultured in YPD culture medium (polypeptone 20 g, yeast extract 10 g, adenine 0.4 g, agar 20 g and glucose 20 g were diluted in 1,000 mL of water) at 28° C. for one day to express the polypeptide from cDNA integrated therein. Note that ω3 desaturase inherent in the oleaginous yeast is not expressed in this culture condition. Subsequently, to the culture medium, an ω6 unsaturated fatty acid: linoleic acid (LA, 18: 2n-6), γ-linolenic acid (GLA, 18: 3n-6), dihomo-γ-linolenic acid (DGLA, 20: 3n-6), or arachidonic acid (ARA, 20: 4n-6) was added and cultured at 28° C. for two days. Thereafter the amounts of the corresponding ω3 unsaturated fatty acid: α-linolenic acid (ALA, 18: 3n-3), stearidonic acid (SDA, 18: 4n-3), eicosatetraenoic acid (ETA, 20: 4n-3) or eicosapentaenoic acid (EPA, 20: 5n-3) produced by ω3 unsaturation were measured.

CCCCC/C=C\C/C=C\C/C=C\C/C=C\CCCC(=O)O [AA, arachidonic acid]
conversion into the corresponding ω3 unsaturated fatty acid: converted into the corresponding ω3 unsaturated fatty acids
Conversion rate (%): 7.86%

CCCCC/C=C\C/C=C\C/C=C\CCCCCCC(=O)O [DGLA, dihomo-γ-linolenic acid]
conversion into the corresponding ω3 unsaturated fatty acid: converted into the corresponding ω3 unsaturated fatty acids
Conversion rate (%): 6.90%

CCCCC/C=C\C/C=C\C/C=C\CCCCC(=O)O [GLA, γ-linolenic acid]
conversion into the corresponding ω3 unsaturated fatty acid: converted into the corresponding ω3 unsaturated fatty acids
Conversion rate (%): 8.36%

CCCCC/C=C\C/C=C\CCCCCCCC(=O)O [LA, linoleic acid]
conversion into the corresponding ω3 unsaturated fatty acid: converted into the corresponding ω3 unsaturated fatty acids
Conversion rate (%): 3.03%

B1: polypeptide (SEQ ID NO: 2): ω3 desaturase derived from Pythium folliculosum or Pythium torulosum, encoded by cDNA SEQ ID NO: 1 (protein, listed as Pythium folliculosum)
chain: MADVNTSSPAAAPVATPEPFEFPSLTELKRSIPARYFESSAPRSLLFTARAFAFAYAFGAALFHARQLPLVAEHAALDALLCAAYTFLQGVNMWGFFTIGHDCGHGSFSRYHLLNFVVGTLTHSLILTPYEAWKLSHRLHHKNTGNIDQDEIFYPQRKETVNDPARKMVLSFGLAWWIYEIIGFPPRTEEHTELRDSLFSRHLITGSLSVLAHLACVMLAFNLTYVLGWATMGVYYWAPLFVFASMLVITTFLHHNDEETPWYADSEWTYVKGNLSSVDRDYGWVVNHLSHNIGTHQVHHLFPIIPHYNLNGATEYFRKAFPHLVRKSDDRILPAFVRVGLLYVKYGVIENDAKHFSLKDNREVLTKRA
modifications: Omega-3 desaturase
ω3 desaturation activity (expressed in Saccharomyces cerevisiae InvSc1, 28° C.): an enzyme having ω3 desaturation activity at normal temperature
